Data published in PubChem BioAssay (NCI).
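Results reflect a 48-hour exposure of cells in 96-well plates to compound at five concentrations. GI50 is the concentration that inhibits growth by half. The concentration for full growth arrest is given as TGI.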

Key:
Assay in all cases: NCI tumour cell line growth inhibition, 48 h
SF-539 CNS = test system: SF-539 CNS
SK-MEL-2 melanoma = test system: SK-MEL-2 melanoma
MOLT-4 leukemia = test system: MOLT-4 leukemia
HCC-2998 colon = test system: HCC-2998 colon
HCT-15 colon = test system: HCT-15 colon
IGROV1 ovarian = test system: IGROV1 ovarian
HL-60(TB) leukemia = test system: HL-60(TB) leukemia
RPMI-8226 leukemia = test system: RPMI-8226 leukemia
HOP-62 NSCLC = test system: HOP-62 NSCLC
BT-549 breast = test system: BT-549 breast

SMILES | TGI (SF-539 CNS) | TGI (SK-MEL-2 melanoma) | TGI (MOLT-4 leukemia) | TGI (HCC-2998 colon) | TGI (HCT-15 colon) | TGI (IGROV1 ovarian) | TGI (HL-60(TB) leukemia) | TGI (RPMI-8226 leukemia) | TGI (HOP-62 NSCLC) | GI50 (SK-MEL-2 melanoma) | GI50 (MOLT-4 leukemia) | GI50 (BT-549 breast) | TGI (BT-549 breast) | GI50 (HCT-15 colon) | GI50 (IGROV1 ovarian) | GI50 (HL-60(TB) leukemia) | GI50 (HOP-62 NSCLC) | GI50 (SF-539 CNS) | GI50 (HCC-2998 colon) | GI50 (RPMI-8226 leukemia)
C#CCC(N)(CO)C(=O)O (stereo not drawn) | > 100 µM | > 100 µM | > 100 µM | > 100 µM | > 100 µM | > 100 µM | > 100 µM | > 100 µM | > 100 µM |  |  |  |  |  |  |  |  |  |  | 
C=CCC1[C@@H](C(C)(C)C(C(C)=O)C(=O)C(=O)OC)OC(C(C)(C)C)N1C(=O)OC (stereo partly drawn) | > 100 µM | > 100 µM | 70.9 µM | > 100 µM | > 100 µM |  |  |  | > 100 µM |  |  |  |  |  |  |  |  |  |  | 
COC1OC(C)C(OCc2ccccc2)C(OS(=O)(=O)c2ccc(C)cc2)C1OS(=O)(=O)c1ccc(C)cc1 (stereo not drawn) | > 100 µM | > 100 µM | > 100 µM | > 100 µM | > 100 µM | > 100 µM | > 100 µM | > 100 µM | > 100 µM |  |  |  |  |  |  |  |  |  |  | 
CCOC(=O)C(=O)Nc1ccccc1C(F)(F)F | > 100 µM | > 100 µM |  | > 100 µM | > 100 µM | > 100 µM |  | > 100 µM | > 100 µM |  |  |  |  |  |  |  |  |  |  | 
CNC(SC)=C1C(=O)OC(C)(C)OC1=O |  | > 100 µM | > 100 µM | > 100 µM | 40.9 µM | > 100 µM | > 100 µM | > 100 µM | > 100 µM |  |  |  |  |  |  |  |  |  |  | 
OC(CN1CC1)C(O)CN1CC1 (stereo not drawn) |  | > 50 µg/mL | > 50 µg/mL |  | > 50 µg/mL | > 50 µg/mL | > 50 µg/mL |  | > 50 µg/mL | > 50 µg/mL | > 50 µg/mL | > 50 µg/mL | > 50 µg/mL | > 50 µg/mL | > 50 µg/mL | > 50 µg/mL | > 50 µg/mL |  |  | 
CSc1c(C)c(C)nn1-c1ccccc1 | > 100 µM | > 100 µM | > 100 µM | > 100 µM | > 100 µM | > 100 µM | > 100 µM | > 100 µM |  |  |  |  |  |  |  |  |  |  |  | 
Cc1nnc(N/N=C(/C(=O)C(C#N)c2ccccc2)C(C#N)c2ccccc2)n1N (stereo not drawn) | > 65.2 µM | 12.5 µM | 9.28 µM | 11 µM | > 53 µM | > 95.9 µM | 57.8 µM | 85.8 µM | > 100 µM |  |  |  |  |  |  |  |  |  |  | 
COc1c(Br)cc(Br)c(OC)c1-c1[nH]c(Br)c(Br)c1Br | 21.8 µM | 13.7 µM | 21.8 µM | 19.2 µM | 20.1 µM | 20.6 µM | 25.1 µM | 13.2 µM | 21.3 µM |  |  |  |  |  |  |  |  |  |  | 
NC(N)=NS(=O)(=O)c1ccc(NC(=O)c2cccc3c(Nc4ccc(S(N)(=O)=O)cc4)c4ccccc4nc23)cc1 | > 100 µM | > 100 µM | > 100 µM | > 100 µM | > 100 µM | > 100 µM |  | > 100 µM | > 100 µM |  |  |  |  |  |  |  |  |  |  | 
O=c1c2c3c(sc2n2c(-c4cc(-c5ccccc5)nn4-c4ccccc4)nnc2n1Cc1ccccc1)CCCC3 | > 100 µM | > 100 µM |  | > 100 µM | > 100 µM |  |  |  | > 100 µM | > 100 µM |  | > 100 µM | > 100 µM | > 100 µM |  |  | > 100 µM | > 100 µM | > 100 µM | 
Cl[Si]1(Cl)Oc2ccccc2O[Si](Cl)(Cl)Oc2ccccc2O1 | 97.9 µM | 73.8 µM | 42.8 µM | 53.5 µM | > 100 µM | > 100 µM | 4.63 µM | > 100 µM | > 100 µM |  |  |  |  |  |  |  |  |  |  | 
O=C/C(=C(/Cl)c1ccc(O)cc1)c1ccccc1 | > 57.1 µM | 81.6 µM | > 69.4 µM | > 100 µM | 46 µM | 66.6 µM | > 100 µM | > 63 µM |  |  |  |  |  |  |  |  |  |  |  | 
O=C1c2cccnc2-c2nc(-c3ccncc3)cc3c2c1nc1ccccc13 | 13.6 µM | > 100 µM | > 100 µM |  | 21.8 µM | 28.8 µM | 89.6 µM | 64.8 µM | 27.4 µM | > 100 µM | 5.14 µM | 24.6 µM | 62.1 µM | 10.2 µM | 4.67 µM | 12.3 µM | 14.3 µM | 2.95 µM |  | 14.6 µM
CCOC(=O)c1ccc(N[C@@H]2c3cc4c(cc3C(C3=CC(=O)C(=O)C(OC)=C3)[C@H]3C(=O)OCC32)OCO4)cc1 (stereo partly drawn) | 4.56 µM | 6.08 µM | > 37.7 µM | 10.9 µM | 7.82 µM | 28.5 µM | > 19.7 µM | 66.8 µM | 1.66 µM |  |  |  |  |  |  |  |  |  |  | 
COC(=O)/C(C#N)=C1\CCC(C(=O)OC)N1C (stereo not drawn) | > 100 µM | > 100 µM | > 100 µM | > 100 µM | > 100 µM | > 100 µM | > 100 µM | > 100 µM | > 100 µM |  |  |  |  |  |  |  |  |  |  | 
C[C@H]1[C@H](C)CC[C@]2(C(=O)NCCNCCN)CC[C@]3(C)C(=CC[C@@H]4[C@@]5(C)CCC(=O)C(C)(C)[C@@H]5CC[C@]43C)[C@H]12 | 3.05 µM | 4.29 µM | 4.73 µM | 3.07 µM | 3.29 µM | 3.17 µM |  |  |  | 1.98 µM | 2.2 µM | 6.45 µM | 24.1 µM | 1.73 µM | 1.71 µM |  |  | 1.68 µM | 1.66 µM | 
C=CCSc1nc2ccccc2c(=O)n1Cc1ccco1 | > 100 µM | > 100 µM |  | > 100 µM | > 100 µM | > 100 µM |  | > 100 µM | > 100 µM |  |  |  | > 100 µM |  |  |  |  |  |  | 
Cc1ccc2nc3c(Cl)c(C)c(=O)cc-3sc2c1 | > 100 µM | > 100 µM | > 100 µM | > 100 µM | > 100 µM | > 100 µM | > 100 µM | > 100 µM | > 100 µM | 51.1 µM |  |  |  | 34.3 µM | > 100 µM |  | 47.8 µM | 50.9 µM | > 100 µM | 
CC1(Cc2ccccc2)NC(=S)NC1=O (stereo not drawn) | > 100 µM | > 100 µM |  | > 100 µM |  |  | > 100 µM |  | > 100 µM |  |  |  |  |  |  |  |  |  |  | 
COc1cc2cnc3c4ccccc4ccc3c2cc1OC |  | > 100 µM | > 100 µM | > 100 µM |  | > 100 µM |  | > 100 µM | > 100 µM |  |  |  |  |  |  |  |  |  |  | 
CC1(C)OC2COC3(CNO)OC(C)(C)OC3C2O1 (stereo not drawn) | > 100 µM | > 100 µM | > 100 µM | > 100 µM | > 100 µM | > 100 µM | 30.2 µM |  | > 100 µM |  |  |  |  |  |  |  |  |  |  | 
